Data reported in patent publication US12263192B2, “Compositions for management of disorders of the gastrointestinal tract” (PanTheryx, Inc., priority 2019, dated 2025).

Experiments:
[1] = tested on: rotavirus infection in MA-104 cells; details: cited from earlier work
rotavirus = details: pediatric patients; 3 day course; 7.5 mg/kg suspension; cited from earlier work
these cell lines = details: cited from earlier work
RIE cells = test: Cell proliferation assay in RIE cells; type: cell-based, rat; details: vs SFM, standard colostrum or ZnC
Description: Human gastrointestinal cells (AGS cells) or rat intestinal epithelial cells (RIE cells) are seeded at 2000 cells/well in an appropriate growth medium containing glutamine and 10% foetal calf serum in 96 well plates overnight. The following day, cells are washed twice with serum-free medium and then incubated in serum-free medium alone (SFM negative control) or also containing colostrum at various concentrations or epidermal growth factor (EGF, positive control) overnight. The following day ALAMARBLUE™ is added to each well. ALAMARBLUE™ is a coloured substrate that changes colour from blue to pink in response to cellular metabolic reduction. This change can be determined by reading the absorbance of the wells at 570 nm using a spectrophotometer at 0 h when the substrate is added and 4 hours later.

AGS cells [2] = test: Cell migration assay (wounded monolayers) of egg and/or colostrum, Example 8A; type: cell-based, human; details: purified protein
Description: Cell migration assays were performed using our previously published methods. Marchbank et al., Am J Physiol Gastrointest Liver Physiol. 2009; 296:[…]-703. Briefly, confluent monolayers had standard wounds inflicted and serial photomicrographs taken. Twenty measurements per field were performed by placing a transparent grid over the photograph and measuring the distance moved from the original wound line. All results are expressed as mean (SEM) of four separate experiments. Whole powdered egg and colostrum (0.25-4 mg/ml) was added to cells and effect on proliferation and cell migration analysed. Additional studies compared “pure” yolk and egg white powder (1 mg powder/ml) along with separated yolk and white from fresh eggs (added at same protein concentration as equivalent powder) and also compared uncooked egg powder and whole fresh egg that had been heated to 100° C. for 8 minutes (samples placed in 50 ml falcon tube in waterbath, followed by homogenisation) prior to addition to cells. […] This 40:60 proportion was used to reproduce the product currently commercially available and used in trials of infectious diarrhoea. Gaensbauer et al. BMJ Glob Health. 2017; 2:e000452. […]

AGS cells [3] = test: Proliferation assay (ALAMARBLUE) of egg and/or colostrum, Example 8A; type: cell-based, human
Description: Cell proliferation assays were performed as previously described, utilising ALAMARBLUETM (Invitrogen, Paisley, UK), (Marchbank et al., Am J Physiol Gastrointest Liver Physiol. 2009; 296:[…]-703) as per manufacturer's instructions. Briefly, cells were seeded at 2000 cells/well, grown in medium and 10% FCS in 96 well plates overnight. The following day, cells were washed with medium alone and incubated in medium alone (negative control), medium containing epidermal growth factor (EGF, 1 μg/ml, positive control) or egg and colostrum combination. BSA was added to additional wells as a further negative control. Data are expressed as % positive control where the rise in proliferation (increase in A570 above baseline) caused by […] of EGF was defined as 100%. Whole powdered egg and colostrum (0.25-4 mg/ml) was added to cells and effect on proliferation and cell migration analysed. Additional studies compared “pure” yolk and egg white powder (1 mg powder/ml) along with separated yolk and white from fresh eggs (added at same protein concentration as equivalent powder) and also compared uncooked egg powder and whole fresh egg that had been heated to 100° C. for 8 minutes (samples placed in 50 ml falcon tube in waterbath, followed by homogenisation) prior to addition to cells. […] This 40:60 proportion was used to reproduce the product currently commercially available and used in trials of infectious diarrhoea. Gaensbauer et al. BMJ Glob Health. 2017; 2:e000452. The importance of the EGFR and TGFβ in mediating proliferative and migratory effects was examined by adding whole egg powder (1 mg/ml, w/v) to cells in the presence and absence of tyrphostin (100 nM) and a TGFβ ([…]) neutralising antibody (antibodies-online.com, Aachen, Germany). Additional samples examined the effect of pure ovomucoid (25-100 μg/ml) and ovalbumin (50-400 μg/ml) on proliferation and migration. To further examine the contribution of ovomucoid and ovalbumin in mediating the proliferative and migratory activity seen using whole egg powder, further wells had egg powder added (1 mg/ml) in the presence of anti-ovomucoid and ovalbumin antibodies (Generon, Slough, Berkshire, UK) at 1 μg/ml.

Molecule: O=c1cc(-c2ccc(O)cc2)oc2cc(O[C@@H]3O[C@H](CO)[C@@H](O)[C@H](O)[C@H]3O)cc(O)c12 [apigenin 7-O-glucoside]
- antiviral activity against rotavirus infection [1]: antiviral activity

Molecule: CC(=O)Oc1ccccc1C(=O)Nc1ncc([N+](=O)[O-])s1 [Nitazoxanide]
- duration of rotavirus disease (rotavirus): effective to reduce the duration of rotavirus disease

Molecule: soya bean trypsin inhibitor
- proliferation or migration (these cell lines): does not increase proliferation or migration

Molecule: O=c1cc(-c2ccc(O)c(O)c2)oc2cc(O)cc(O)c12 [luteolin]
- antiviral activity against rotavirus infection [1]: antiviral activity

Molecule: zinc carnosine
- cell proliferation (A570 nm), comparison in words (RIE cells): stimulate cell proliferation

Molecule: ovalbumin: purified ovalbumin, 42 kDa egg white protein
- cell migration dose-response, in words (AGS cells [2]; 50-400 μg/ml): increasing activity up to the highest dose
- effect on proliferation and migration (AGS cells [3]; pure isolated ovalbumin at 400 µg/mL): major stimulatory effect
- cell proliferation dose-response, in words (AGS cells [3]; purified protein, 50-400 μg/ml): increasing activity up to the highest dose

B1: ovomucoid: purified ovomucoid, 28 kDa egg white protein with trypsin inhibitor activity (protein, UniProt P01005 25-210, looked up)
Ovomucoid: AEVDCSRFPNATDKEGKDVLVCNKDLRPICGTDGVTYTNDCLLCAYSIEFGTNISKEHDGECKETVPMNCSSYANTTSEDGKVMVLCNRAFNPVCGTDGVTYDNECLLCAHKVEQGASVDKRHDGGCRKELAAVSVDCSEYPKPDCTAEDRPLCGSDNKTYGNKCNFCNAVVESNGTLTLSHFGKC
- concentration of peak effect, cell migration (AGS cells [2]; dose-response 25-100 μg/ml): 50 µg/mL
- share of total proliferative and migratory activity of whole egg (AGS cells [3]; from neutralising antibody studies): about 80%
- concentration of peak effect, cell proliferation (AGS cells [3]; purified protein, dose-response 25-100 μg/ml): 50 µg/mL
